Data: PubChem BioAssay (NCI)
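Five concentrations, 48 hours, 96-well plates. At the GI50, growth is halved. The concentration for full growth arrest is given as TGI.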

Experiments:
Assay in all cases: NCI anticancer screen, dose series, 48 h
[1] = tested on: LOX IMVI melanoma
[2] = tested on: HT29 colon
[3] = tested on: A498 renal
[4] = tested on: MDA-MB-435
[5] = tested on: NCI-H522 lung
[6] = tested on: SF-539 CNS
[7] = tested on: DU-145 prostate
[8] = tested on: UACC-62 melanoma
[9] = tested on: MDA-MB-231 breast
[10] = tested on: OVCAR-5 ovarian
[11] = tested on: NCI-H226 lung
[12] = tested on: NCI/ADR-RES ovarian
[13] = tested on: CAKI-1 renal
[14] = tested on: PC-3 prostate
[15] = tested on: OVCAR-8 ovarian
[16] = tested on: U251 CNS
[17] = tested on: EKVX NSCLC
[18] = tested on: MCF7 breast
[19] = tested on: HCT-15 colon
[20] = tested on: SK-OV-3 ovarian
[21] = tested on: SR leukemia
[22] = tested on: SW-620 colon
[23] = tested on: MOLT-4 leukemia
[24] = tested on: SNB-19 CNS
[25] = tested on: ACHN renal
[26] = tested on: SK-MEL-28 melanoma
[27] = tested on: HOP-92 NSCLC
[28] = tested on: KM12 colon
[29] = tested on: UACC-257 melanoma
[30] = tested on: K-562 leukemia
[31] = tested on: A549 NSCLC
[32] = tested on: SNB-75 CNS
[33] = tested on: M14 melanoma
[34] = tested on: TK-10 renal
[35] = tested on: SF-295 CNS
[36] = tested on: SN12C renal
[37] = tested on: SK-MEL-5 melanoma
[38] = tested on: RPMI-8226 leukemia
[39] = tested on: RXF 393 renal
[40] = tested on: 786-0 renal
[41] = tested on: IGROV1 ovarian
[42] = tested on: CCRF-CEM leukemia
[43] = tested on: NCI-H460 lung
[44] = tested on: NCI-H23 lung
[45] = tested on: OVCAR-4 ovarian
[46] = tested on: COLO 205 colon
[47] = tested on: HCC-2998 colon
[48] = tested on: SK-MEL-2 melanoma
[49] = tested on: T-47D breast
[50] = tested on: UO-31 renal
[51] = tested on: HCT-116 colon
[52] = tested on: MALME-3M melanoma
[53] = tested on: SF-268 CNS
[54] = tested on: HS 578T breast
[55] = tested on: HL-60(TB) leukemia
[56] = tested on: HOP-62 NSCLC

C=CCn1c(SCC(=O)Nc2ccc(C(=O)/C=C/c3cc(OC)c(OC)c(OC)c3)cc2)nnc1-c1c[nH]c2ccccc12
GI50 [1]: 0.904 µM | TGI [1]: 2.34 µM | GI50 [2]: 1.7 µM | TGI [2]: 3.3 µM | GI50 [3]: 1.5 µM | TGI [3]: 2.92 µM | GI50 [4]: 1.82 µM | TGI [4]: 4.76 µM | GI50 [5]: 2.15 µM | TGI [5]: 4.99 µM | GI50 [6]: 1.81 µM | TGI [6]: 3.64 µM | GI50 [7]: 3.19 µM | TGI [7]: 10.8 µM | GI50 [8]: 2.55 µM | TGI [8]: 10.4 µM | GI50 [9]: 5.58 µM | TGI [9]: > 100 µM | GI50 [10]: 2.06 µM | TGI [10]: 4.34 µM | GI50 [11]: 2.56 µM | TGI [11]: 56.8 µM | GI50 [12]: > 100 µM | TGI [12]: > 100 µM | GI50 [13]: 3.35 µM | TGI [13]: > 100 µM | GI50 [14]: 3.09 µM | TGI [14]: > 100 µM | GI50 [15]: 3.44 µM | TGI [15]: > 100 µM | GI50 [16]: 1.61 µM | TGI [16]: 3.64 µM | GI50 [17]: 3.69 µM | TGI [17]: > 100 µM | GI50 [18]: 0.361 µM | TGI [18]: 1.86 µM | GI50 [19]: 2.08 µM | TGI [19]: 11.1 µM | GI50 [20]: 4.46 µM | TGI [20]: 19.3 µM | GI50 [21]: 0.522 µM | TGI [21]: > 100 µM | GI50 [22]: 2.08 µM | TGI [22]: 5.85 µM | GI50 [23]: 2.7 µM | TGI [23]: > 100 µM | GI50 [24]: 3 µM | TGI [24]: 13.3 µM | GI50 [25]: 1.97 µM | TGI [25]: 4.33 µM | GI50 [26]: 2.32 µM | TGI [26]: 5.61 µM | GI50 [27]: 4.24 µM | TGI [27]: > 100 µM | GI50 [28]: 1.48 µM | TGI [28]: 2.98 µM | GI50 [29]: 3.5 µM | TGI [29]: 19.8 µM | GI50 [30]: 0.991 µM | TGI [30]: > 100 µM | GI50 [31]: 3.04 µM | TGI [31]: 12.3 µM | GI50 [32]: 3.5 µM | TGI [32]: 17.3 µM | GI50 [33]: 2.66 µM | TGI [33]: 8.39 µM | GI50 [34]: 5.8 µM | TGI [34]: 34.3 µM | GI50 [35]: 3.14 µM | TGI [35]: 11.6 µM | GI50 [36]: 3.71 µM | TGI [36]: > 100 µM | GI50 [37]: 3.52 µM | TGI [37]: 13.5 µM | GI50 [38]: 0.288 µM | TGI [38]: 1.26 µM | GI50 [39]: 1.53 µM | TGI [39]: 3.34 µM | GI50 [40]: 1.84 µM | TGI [40]: 3.43 µM | GI50 [41]: 1.6 µM | TGI [41]: 4.06 µM | GI50 [42]: 2.24 µM | TGI [42]: > 100 µM | GI50 [43]: 3.1 µM | TGI [43]: 10.1 µM | GI50 [44]: 1.85 µM | TGI [44]: 4.16 µM | GI50 [45]: 2.79 µM | TGI [45]: 8.91 µM | GI50 [46]: 1.87 µM | TGI [46]: 4.07 µM | GI50 [47]: 1.65 µM | TGI [47]: 3.09 µM | GI50 [48]: 2.25 µM | TGI [48]: 6.38 µM | GI50 [49]: 2.42 µM | TGI [49]: > 100 µM | GI50 [50]: 1.63 µM | TGI [50]: 4.77 µM | GI50 [51]: 0.376 µM | TGI [51]: 1.53 µM | GI50 [52]: 3.2 µM | TGI [52]: 24.9 µM | GI50 [53]: 3.43 µM | TGI [53]: 18.6 µM | GI50 [54]: 4.35 µM | TGI [54]: > 100 µM | GI50 [55]: 2.18 µM | TGI [55]: 8.04 µM | GI50 [56]: 2.06 µM | TGI [56]: 5.22 µM
